These results are taken from patent US9192567B2, “Method for treating eye disease or conditions affecting the posterior segment of the eye” (SANTEN SAS, priority 2006, dated 2015).

A short description of this series: Intraocular pharmacokinetics of dexamethasone palmitate and dexamethasone following intravitreal administration. Conditions: following IVT injection of 800 ug of prodrug. From the text:
Analytes and internal standard (roxithromycine) were extracted from the tissues using acetonitrile and separated by reverse phase liquid chromatography with a C8 column and a gradient mobile phase. […] The unweighed linear model was applied.
All concentrations are expressed in ng/g.

Take `C[C@@H]1C[C@H]2[C@@H]3CCC4=CC(=O)C=C[C@]4(C)[C@@]3(F)[C@@H](O)C[C@]2(C)[C@@]1(O)C(=O)CO` [D, dexamethasone]: the “time for which therapeutic levels were maintained in the target tissues” value was “at least 2 months”.
